Values quoted from earlier work in patent US20100111901A1, “TRIAZOLE INHIBITORS OF AROMATASE” (priority 2008, published 2010).

Legend:
CYP2D6 = CYP2D6 (Homo sapiens, UniProt P10635)
CYP2A6 = CYP2A6 (Homo sapiens, UniProt P11509)
CYP1A2 = CYP1A2 (Homo sapiens, UniProt P05177); conditions: strongest in decreasing order of magnitude
[1] = in vivo

Chain of CYP2A6 (P11509 whole entry): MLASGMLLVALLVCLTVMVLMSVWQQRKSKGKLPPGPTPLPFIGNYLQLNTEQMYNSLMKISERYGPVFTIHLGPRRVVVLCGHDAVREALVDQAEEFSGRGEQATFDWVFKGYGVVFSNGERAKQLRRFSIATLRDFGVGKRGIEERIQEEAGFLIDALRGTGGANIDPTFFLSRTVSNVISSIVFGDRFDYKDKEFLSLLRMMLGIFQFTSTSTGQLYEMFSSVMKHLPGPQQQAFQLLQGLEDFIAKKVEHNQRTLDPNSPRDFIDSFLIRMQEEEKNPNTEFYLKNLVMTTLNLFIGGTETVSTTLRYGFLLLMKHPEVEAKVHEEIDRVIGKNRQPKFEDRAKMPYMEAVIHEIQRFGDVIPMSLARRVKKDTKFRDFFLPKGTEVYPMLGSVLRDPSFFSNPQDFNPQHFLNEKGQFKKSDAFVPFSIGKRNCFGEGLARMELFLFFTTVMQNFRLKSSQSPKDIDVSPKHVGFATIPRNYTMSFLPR
Chain of CYP2D6 (P10635 whole entry): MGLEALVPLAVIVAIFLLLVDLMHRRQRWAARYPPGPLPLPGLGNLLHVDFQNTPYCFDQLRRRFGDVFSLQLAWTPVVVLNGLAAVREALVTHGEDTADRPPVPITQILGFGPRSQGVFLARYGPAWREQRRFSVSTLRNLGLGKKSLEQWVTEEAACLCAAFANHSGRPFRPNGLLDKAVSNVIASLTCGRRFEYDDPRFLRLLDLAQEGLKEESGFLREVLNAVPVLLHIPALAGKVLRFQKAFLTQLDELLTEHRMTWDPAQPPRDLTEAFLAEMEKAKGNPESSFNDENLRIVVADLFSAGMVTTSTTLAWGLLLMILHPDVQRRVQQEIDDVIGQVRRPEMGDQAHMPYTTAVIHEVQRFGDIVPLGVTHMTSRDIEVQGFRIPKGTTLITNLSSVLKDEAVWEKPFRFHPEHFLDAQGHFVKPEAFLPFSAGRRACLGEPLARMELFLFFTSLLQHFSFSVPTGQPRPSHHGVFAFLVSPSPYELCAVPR
Chain of CYP1A2 (P05177 whole entry): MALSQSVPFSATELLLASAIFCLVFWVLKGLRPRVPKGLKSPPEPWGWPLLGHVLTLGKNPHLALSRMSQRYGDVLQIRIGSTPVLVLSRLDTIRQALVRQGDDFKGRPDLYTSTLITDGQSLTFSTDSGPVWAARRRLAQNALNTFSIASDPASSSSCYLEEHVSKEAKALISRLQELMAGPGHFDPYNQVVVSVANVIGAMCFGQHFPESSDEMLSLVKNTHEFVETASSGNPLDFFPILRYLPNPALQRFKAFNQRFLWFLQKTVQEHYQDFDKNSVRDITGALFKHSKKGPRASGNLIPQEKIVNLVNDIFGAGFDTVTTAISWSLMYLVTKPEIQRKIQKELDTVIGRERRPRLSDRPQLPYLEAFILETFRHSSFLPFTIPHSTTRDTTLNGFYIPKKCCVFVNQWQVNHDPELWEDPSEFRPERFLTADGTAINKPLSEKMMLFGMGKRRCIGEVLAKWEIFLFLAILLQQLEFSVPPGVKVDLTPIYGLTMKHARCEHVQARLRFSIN

effect on CYP2D6 (CYP2D6): no effect
effect on CYP2A6 (CYP2A6): no effect
inhibition of CYP1A2 (CYP1A2): inhibits
mean terminal elimination half-life [1]: 40 to 50 h
SMILES: CC(C)(C#N)c1cc(Cn2cncn2)cc(C(C)(C)C#N)c1 [Anastrozole, 2-[3-(2-cyano-2-propyl)-5-(1,2,4-triazol-1-ylmethyl)phenyl]-2-methylpropiononitrile]
